Data published in US12268707B2, “Treatment for coronavirus infection and associated cytokine toxicity” (priority 2020, dated 2025).
Several values for one entry are separate records, joined by “and”; a condition that tells them apart may be missing. Equal values may be shown once.

Assays:
[1] = fraction of heparin's anticoagulant properties; cited from earlier work
SARS-CoV-2 = assay type: cell-based
[2] = high doses for extended periods; cited from earlier work
[3] = administered orally, intravenously or subcutaneously; cited from earlier work

pentosan polysulfate [PPS]
anticoagulant properties relative to heparin [1]: about 1/15 and 1/15 | reduction in virus infectivity (TCID50/mL) (SARS-CoV-2): almost four orders of magnitude reduction | virus replication in Calu3 cells (SARS-CoV-2): inhibited much more strongly | side effects [2]: only limited side effects | bioavailability [3]: bioavailable
